In PubChem BioAssay (NCI):
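Each compound was tested at five concentrations against cells in 96-well plates for 48 hours. GI50 = concentration required for 50% inhibition of growth. TGI: total growth inhibition.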

Columns and labels:
Assay in all cases: NCI tumour cell line growth inhibition, 48 h
CAKI-1 renal = test system: CAKI-1 renal
NCI-H460 lung = test system: NCI-H460 lung
OVCAR-5 ovarian = test system: OVCAR-5 ovarian
NCI/ADR-RES ovarian = test system: NCI/ADR-RES ovarian
SR leukemia = test system: SR leukemia
COLO 205 colon = test system: COLO 205 colon
IGROV1 ovarian = test system: IGROV1 ovarian
A498 renal = test system: A498 renal
SNB-75 CNS = test system: SNB-75 CNS
M14 melanoma = test system: M14 melanoma
OVCAR-4 ovarian = test system: OVCAR-4 ovarian
TK-10 renal = test system: TK-10 renal
SN12C renal = test system: SN12C renal
KM12 colon = test system: KM12 colon
HCT-116 colon = test system: HCT-116 colon
PC-3 prostate = test system: PC-3 prostate
DU-145 prostate = test system: DU-145 prostate
RXF 393 renal = test system: RXF 393 renal
UO-31 renal = test system: UO-31 renal
T-47D breast = test system: T-47D breast
HOP-92 NSCLC = test system: HOP-92 NSCLC
MDA-MB-435 = test system: MDA-MB-435
RPMI-8226 leukemia = test system: RPMI-8226 leukemia
NCI-H226 lung = test system: NCI-H226 lung
SF-268 CNS = test system: SF-268 CNS
SF-295 CNS = test system: SF-295 CNS
EKVX NSCLC = test system: EKVX NSCLC
HT29 colon = test system: HT29 colon
UACC-257 melanoma = test system: UACC-257 melanoma
MALME-3M melanoma = test system: MALME-3M melanoma
NCI-H522 lung = test system: NCI-H522 lung
SF-539 CNS = test system: SF-539 CNS
ACHN renal = test system: ACHN renal
SK-OV-3 ovarian = test system: SK-OV-3 ovarian
K-562 leukemia = test system: K-562 leukemia
HCT-15 colon = test system: HCT-15 colon
OVCAR-3 ovarian = test system: OVCAR-3 ovarian
NCI-H23 lung = test system: NCI-H23 lung
HS 578T breast = test system: HS 578T breast
SK-MEL-2 melanoma = test system: SK-MEL-2 melanoma
CCRF-CEM leukemia = test system: CCRF-CEM leukemia
HCC-2998 colon = test system: HCC-2998 colon
SNB-19 CNS = test system: SNB-19 CNS
SK-MEL-5 melanoma = test system: SK-MEL-5 melanoma
U251 CNS = test system: U251 CNS
OVCAR-8 ovarian = test system: OVCAR-8 ovarian
SK-MEL-28 melanoma = test system: SK-MEL-28 melanoma
HL-60(TB) leukemia = test system: HL-60(TB) leukemia
LOX IMVI melanoma = test system: LOX IMVI melanoma
HOP-62 NSCLC = test system: HOP-62 NSCLC
BT-549 breast = test system: BT-549 breast
UACC-62 melanoma = test system: UACC-62 melanoma
MOLT-4 leukemia = test system: MOLT-4 leukemia
786-0 renal = test system: 786-0 renal
MDA-MB-231 breast = test system: MDA-MB-231 breast
A549 NSCLC = test system: A549 NSCLC
SW-620 colon = test system: SW-620 colon

COc1ccc2nc3ccc(OC)cc3c(SCCCN)c2c1
GI50 (CAKI-1 renal): 9.79 µM | TGI (CAKI-1 renal): 26 µM | GI50 (NCI-H460 lung): 8.66 µM | TGI (NCI-H460 lung): 31.6 µM | GI50 (OVCAR-5 ovarian): 13.5 µM | TGI (OVCAR-5 ovarian): 28.3 µM | GI50 (NCI/ADR-RES ovarian): 13.1 µM | TGI (NCI/ADR-RES ovarian): 37.1 µM | GI50 (SR leukemia): 1.54 µM | TGI (SR leukemia): 3.64 µM | GI50 (COLO 205 colon): 1.42 µM | TGI (COLO 205 colon): 2.97 µM | GI50 (IGROV1 ovarian): 8.46 µM | TGI (IGROV1 ovarian): 27.2 µM | GI50 (A498 renal): 19.4 µM | TGI (A498 renal): 56.5 µM | GI50 (SNB-75 CNS): 13 µM | TGI (SNB-75 CNS): 27.9 µM | GI50 (M14 melanoma): 8.48 µM | TGI (M14 melanoma): 31.1 µM | GI50 (OVCAR-4 ovarian): 5.02 µM | TGI (OVCAR-4 ovarian): 17 µM | GI50 (TK-10 renal): 2.03 µM | TGI (TK-10 renal): 10.5 µM | GI50 (SN12C renal): 10.8 µM | TGI (SN12C renal): 25.5 µM | GI50 (KM12 colon): 4.52 µM | TGI (KM12 colon): 20.5 µM | GI50 (HCT-116 colon): 3.21 µM | TGI (HCT-116 colon): 12.6 µM | GI50 (PC-3 prostate): 1.71 µM | TGI (PC-3 prostate): 4.68 µM | GI50 (DU-145 prostate): 1.81 µM | TGI (DU-145 prostate): 3.26 µM | GI50 (RXF 393 renal): 2.42 µM | TGI (RXF 393 renal): 9.85 µM | GI50 (UO-31 renal): 3.91 µM | TGI (UO-31 renal): 18.3 µM | GI50 (T-47D breast): 3.08 µM | TGI (T-47D breast): 14.2 µM | GI50 (HOP-92 NSCLC): 3.59 µM | TGI (HOP-92 NSCLC): 13.1 µM | GI50 (MDA-MB-435): 6.83 µM | TGI (MDA-MB-435): 27.6 µM | GI50 (RPMI-8226 leukemia): 1.78 µM | TGI (RPMI-8226 leukemia): 3.92 µM | GI50 (NCI-H226 lung): 19.2 µM | TGI (NCI-H226 lung): 65.7 µM | GI50 (SF-268 CNS): 4.67 µM | TGI (SF-268 CNS): 14.5 µM | GI50 (SF-295 CNS): 18.3 µM | TGI (SF-295 CNS): 38.7 µM | GI50 (EKVX NSCLC): 15.9 µM | TGI (EKVX NSCLC): 35.6 µM | GI50 (HT29 colon): 1.91 µM | TGI (HT29 colon): 4.07 µM | GI50 (UACC-257 melanoma): 15.6 µM | TGI (UACC-257 melanoma): 29.8 µM | GI50 (MALME-3M melanoma): 1.6 µM | TGI (MALME-3M melanoma): 10.5 µM | GI50 (NCI-H522 lung): 1.51 µM | TGI (NCI-H522 lung): 3.09 µM | GI50 (SF-539 CNS): 13.7 µM | TGI (SF-539 CNS): 26.8 µM | GI50 (ACHN renal): 4.72 µM | TGI (ACHN renal): 19.5 µM | GI50 (SK-OV-3 ovarian): 14.2 µM | TGI (SK-OV-3 ovarian): 29.9 µM | GI50 (K-562 leukemia): 1.67 µM | TGI (K-562 leukemia): 3.89 µM | GI50 (HCT-15 colon): 3.17 µM | TGI (HCT-15 colon): 20.2 µM | GI50 (OVCAR-3 ovarian): 2.73 µM | TGI (OVCAR-3 ovarian): 6.88 µM | GI50 (NCI-H23 lung): 5.37 µM | TGI (NCI-H23 lung): 15.4 µM | GI50 (HS 578T breast): 5.9 µM | TGI (HS 578T breast): 15.5 µM | GI50 (SK-MEL-2 melanoma): 6.05 µM | TGI (SK-MEL-2 melanoma): 11.7 µM | GI50 (CCRF-CEM leukemia): 1.76 µM | TGI (CCRF-CEM leukemia): 4.11 µM | GI50 (HCC-2998 colon): 13.2 µM | TGI (HCC-2998 colon): 30.7 µM | GI50 (SNB-19 CNS): 14.4 µM | TGI (SNB-19 CNS): 36.7 µM | GI50 (SK-MEL-5 melanoma): 7.82 µM | TGI (SK-MEL-5 melanoma): 25.7 µM | GI50 (U251 CNS): 9.09 µM | TGI (U251 CNS): > 67.3 µM | GI50 (OVCAR-8 ovarian): 5.13 µM | TGI (OVCAR-8 ovarian): 12.9 µM | GI50 (SK-MEL-28 melanoma): 1.99 µM | TGI (SK-MEL-28 melanoma): 3.86 µM | GI50 (HL-60(TB) leukemia): 4.34 µM | TGI (HL-60(TB) leukemia): 9.49 µM | GI50 (LOX IMVI melanoma): 2.22 µM | TGI (LOX IMVI melanoma): 5.26 µM | GI50 (HOP-62 NSCLC): 20.3 µM | TGI (HOP-62 NSCLC): 45.8 µM | GI50 (BT-549 breast): 10.5 µM | TGI (BT-549 breast): 23.4 µM | GI50 (UACC-62 melanoma): 12 µM | TGI (UACC-62 melanoma): 39.4 µM | GI50 (MOLT-4 leukemia): 2.2 µM | TGI (MOLT-4 leukemia): 6.34 µM | GI50 (786-0 renal): 6.85 µM | TGI (786-0 renal): 15.2 µM | GI50 (MDA-MB-231 breast): 9.78 µM | TGI (MDA-MB-231 breast): 25.3 µM | GI50 (A549 NSCLC): 12.9 µM | TGI (A549 NSCLC): 38.5 µM | GI50 (SW-620 colon): 1.44 µM | TGI (SW-620 colon): 3.15 µM
